Organism: Rattus norvegicus
Assay: DrugMatrix - Regimen: Daily Repeat
Type: toxicity, organism-based, Sprague-Dawley
Set-up: regimen Daily Repeat, gender Male, age 6-8 weeks
Conditions: in vivo, po, 30 mg/kg, route oral GAVAGE, dose level Low, vehicle .5 % CMC; for ABSOLUTE BASOPHIL / ABSOLUTE EOSINOPHIL / ABSOLUTE LYMPHOCYTE / ABSOLUTE MONOCYTE / ABSOLUTE SEGMENTED NEUTROPHIL / BASOPHIL / EOSINOPHIL / ERYTHROCYTE COUNT / HEMATOCRIT / HEMOGLOBIN / LEUKOCYTE COUNT / LYMPHOCYTE / MEAN CORPUSCULAR HEMOGLOBIN / MEAN CORPUSCULAR HEMOGLOBIN CONCENTRATION / MEAN CORPUSCULAR VOLUME / MONOCYTE / NEUTROPHIL / NUCLEATED RED BLOOD CELLS / PLATELET COUNT: tissue Blood; for ALANINE AMINOTRANSFERASE / ALBUMIN / ALKALINE PHOSPHATASE / ASPARTATE AMINOTRANSFERASE / BLOOD UREA NITROGEN / CARBON DIOXIDE / CHLORIDE / CHOLESTEROL / CREATINE PHOSPHOKINASE / CREATININE / GLUCOSE / LACTATE DEHYDROGENASE / LIPASE / PHOSPHORUS / POTASSIUM / SODIUM / TOTAL BILIRUBIN / TOTAL PROTEIN / URIC ACID: tissue Plasma

Structure (SMILES): COc1ccc(/C=C/C(=O)Nc2ccccc2C(=O)O)cc1OC
- ABSOLUTE BASOPHIL (72 h, time 3 day): 0 CELLS/uL
- ABSOLUTE EOSINOPHIL (72 h, time 3 day): 217.33 CELLS/uL
- ABSOLUTE LYMPHOCYTE (72 h, time 3 day): 12060 CELLS/uL
- ABSOLUTE MONOCYTE (72 h, time 3 day): 0 CELLS/uL
- ABSOLUTE SEGMENTED NEUTROPHIL (72 h, time 3 day): 1122.67 CELLS/uL
- BASOPHIL (72 h, time 3 day): 0%
- EOSINOPHIL (72 h, time 3 day): 1.67%
- ERYTHROCYTE COUNT (72 h, time 3 day): 5.52 x10E6/uL
- HEMATOCRIT (72 h, time 3 day): 34.6%
- HEMOGLOBIN (72 h, time 3 day): 13.1 G/DL
- LEUKOCYTE COUNT (72 h, time 3 day): 13.4 x10E3/uL
- LYMPHOCYTE (72 h, time 3 day): 90%
- MEAN CORPUSCULAR HEMOGLOBIN (72 h, time 3 day): 23.77 pg
- MEAN CORPUSCULAR HEMOGLOBIN CONCENTRATION (72 h, time 3 day): 37.9 G/DL
- MEAN CORPUSCULAR VOLUME (72 h, time 3 day): 62.73 fL
- MONOCYTE (72 h, time 3 day): 0%
- NEUTROPHIL (72 h, time 3 day): 8.33%
- NUCLEATED RED BLOOD CELLS (72 h, time 3 day): 0 /100WBC
- PLATELET COUNT (72 h, time 3 day): 1155.33 x10E3/uL
- ALANINE AMINOTRANSFERASE (72 h, time 3 day): 48.67 u/L
- ALBUMIN (72 h, time 3 day): 4.13 G/DL
- ALKALINE PHOSPHATASE (72 h, time 3 day): 344.33 u/L
- ASPARTATE AMINOTRANSFERASE (72 h, time 3 day): 77 u/L
- BLOOD UREA NITROGEN (72 h, time 3 day): 14.67 mg/dL
- CARBON DIOXIDE (72 h, time 3 day): 23.67 mmol/L
- CHLORIDE (72 h, time 3 day): 103.67 MEQ/L
- CHOLESTEROL (72 h, time 3 day): 71 mg/dL
- CREATINE PHOSPHOKINASE (72 h, time 3 day): 180 u/L
- CREATININE (72 h, time 3 day): 0.19 mg/dL
- GLUCOSE (72 h, time 3 day): 159.67 mg/dL
- LACTATE DEHYDROGENASE (72 h, time 3 day): 96.67 u/L
- LIPASE (72 h, time 3 day): 8 u/L
- PHOSPHORUS (72 h, time 3 day): 12.47 mg/dL
- POTASSIUM (72 h, time 3 day): 5.88 MEQ/L
- SODIUM (72 h, time 3 day): 144.63 MEQ/L
- TOTAL BILIRUBIN (72 h, time 3 day): 0.17 mg/dL
- TOTAL PROTEIN (72 h, time 3 day): 5.67 G/DL
- URIC ACID (72 h, time 3 day): 1.47 mg/dL
- ABSOLUTE BASOPHIL (120 h, time 5 day): 0 CELLS/uL
- ABSOLUTE EOSINOPHIL (120 h, time 5 day): 278.67 CELLS/uL
- ABSOLUTE LYMPHOCYTE (120 h, time 5 day): 14764.67 CELLS/uL
- ABSOLUTE MONOCYTE (120 h, time 5 day): 0 CELLS/uL
- ABSOLUTE SEGMENTED NEUTROPHIL (120 h, time 5 day): 1590 CELLS/uL
- BASOPHIL (120 h, time 5 day): 0%
- EOSINOPHIL (120 h, time 5 day): 1.67%
- ERYTHROCYTE COUNT (120 h, time 5 day): 5.36 x10E6/uL
- HEMATOCRIT (120 h, time 5 day): 34.2%
- HEMOGLOBIN (120 h, time 5 day): 13.03 G/DL
- LEUKOCYTE COUNT (120 h, time 5 day): 16.63 x10E3/uL
- LYMPHOCYTE (120 h, time 5 day): 88.67%
- MEAN CORPUSCULAR HEMOGLOBIN (120 h, time 5 day): 24.4 pg
- MEAN CORPUSCULAR HEMOGLOBIN CONCENTRATION (120 h, time 5 day): 38.1 G/DL
- MEAN CORPUSCULAR VOLUME (120 h, time 5 day): 63.97 fL
- MONOCYTE (120 h, time 5 day): 0%
- NEUTROPHIL (120 h, time 5 day): 9.67%
- NUCLEATED RED BLOOD CELLS (120 h, time 5 day): 0.33 /100WBC
- PLATELET COUNT (120 h, time 5 day): 1260.33 x10E3/uL
- ALANINE AMINOTRANSFERASE (120 h, time 5 day): 59 u/L
- ALBUMIN (120 h, time 5 day): 4.5 G/DL
- ALKALINE PHOSPHATASE (120 h, time 5 day): 404 u/L
- ASPARTATE AMINOTRANSFERASE (120 h, time 5 day): 84.33 u/L
- BLOOD UREA NITROGEN (120 h, time 5 day): 18.33 mg/dL
- CARBON DIOXIDE (120 h, time 5 day): 25.33 mmol/L
- CHLORIDE (120 h, time 5 day): 103 MEQ/L
- CHOLESTEROL (120 h, time 5 day): 75.67 mg/dL
- CREATINE PHOSPHOKINASE (120 h, time 5 day): 221 u/L
- CREATININE (120 h, time 5 day): 0.18 mg/dL
- GLUCOSE (120 h, time 5 day): 161.67 mg/dL
- LACTATE DEHYDROGENASE (120 h, time 5 day): 269 u/L
- LIPASE (120 h, time 5 day): 9 u/L
- PHOSPHORUS (120 h, time 5 day): 12.57 mg/dL
- POTASSIUM (120 h, time 5 day): 6.47 MEQ/L
- SODIUM (120 h, time 5 day): 145.07 MEQ/L
- TOTAL BILIRUBIN (120 h, time 5 day): 0.1 mg/dL
- TOTAL PROTEIN (120 h, time 5 day): 6.03 G/DL
- URIC ACID (120 h, time 5 day): 1.6 mg/dL
